Where two headings read alike, the source gives them in different places.
Legend:
male mice (Slc: ddy) [1] = assay: Analgesic examination by radiant heat-stimulation test (tail irradiation, pain threshold); type: in vivo; conditions: for analgesic effect (pain threshold): range 0.03 to 1.0 mg/kg
Protocol: Example 6 Analgesic Examination by Radiant Heat-Stimulation Test:
Each group had 7 animals. An hour after the injection, the analgesic effect of each compound was examined by radiant heat-stimulation test [refer to A.G. Hayes, M.J. Sheehan, M.B. Tyers; Brit. J. Pharmacol., 91, 111 - 115 (1987)]. Namely, the tail of each mouse was irradiated with intense light and the time required until the animal switched its tail was measured. The value thus measured was referred to as the pain threshold.

[2] = test system: extirpated guinea pig ileum pieces; assay: Transmural electric stimulation test on an extirpated guinea pig ileum piece (smooth muscle contraction); type: cell-based; conditions: for pD₂: transmural electric stimulation 0.1 Hz, smooth muscle contraction
Protocol: Example 7 Transmural Electric Stimulation Test on an Extirpated Guinea Pig Ileum Piece:
The effects of the compounds were examined by applying transmural electric stimulation (0.1 Hz) to extirpated guinea pig ileum pieces while using the smooth muscle contraction as an indication [refer to H.K. Kopsterlitz, A.A. Waterfield; Annu. Rev. Pharmacol., 15, 29 - 47 (1975)].
The data shown in Table 1 were calculated according to a method reported by Arunlakshana and Schild [refer to 0. Arunlakashana, H.O. Schild; Brit. J. Pharmacol., 14, 48 - 58 (1959)]. Each value is expressed in mean ± standard deviation.

male mice (Slc: ddy) [3] = assay: Analgesic effect examined by acetic acid-writhing test; type: in vivo; conditions: subcutaneous injection 30 minutes before 0.6% acetic acid i.p., writhings counted within 10 minutes, 7 mice per group
Protocol: Example 8 Analgesic Effect Examined by Acetic Acid- Writhing Test:
Male mice (Slc: ddy) aged 5 weeks were divided into groups each having 7 animals. […] After 30 minutes, 0.6% acetic acid was intraperitoneally administered to each mouse in a dose of 0.1 ml/10 g. 10 minutes thereafter, the writhings thus induced were counted within 10 minutes. […] The acetic acid-writhing test was conducted according to a method reported by R. Koster, M. Anderson and E.I. Debeer [refer to Fed. Proc., 18, 412 (1959)].

[4] = subcutaneous, an hour after the injection, p < 0.01 in Dunnett's t-test
[5] = subcutaneous, an hour after the injection
[6] = antagonism by naloxone, method of Arunlakshana and Schild, mean ± standard deviation

With `CN1CC[C@]23c4c5ccc(O)c4O[C@H]2[C@@H](O)C=C[C@H]3[C@H]1C5.Cl` [Morphine hydrochloride, reference compound] the “dose with statistically significant analgesic effect” value (male mice (Slc: ddy) [1]; mouse, in vivo, sc) was no less than 3.2 mg/kg and the “pA₂ (naloxone)” value [2] was 8.45 ± 0.13.

With `CC(=O)Oc1ccc2c3c1O[C@H]1[C@H](SC(C)=O)C=C[C@H]4[C@@H](C2)N(CC2CC2)CC[C@@]341.Cl` [Compound VII, 3-acetyl-6β-acetylthio-N-cyclopropylmethylnormorphine hydrochloride] the “dose with statistically significant analgesic effect” value (male mice (Slc: ddy) [1]; [4]) was 1.0 mg/kg, the “analgesic effect (pain threshold)” value (male mice (Slc: ddy) [1]; [5]) was “analgesic effect depending on dose” and the ED₅₀ (male mice (Slc: ddy) [3]) was 0.062 mg/kg. The “pA₂ (naloxone)” value [2, 6] was 7.80 ± 0.13 and the pD₂ ([2]; mean ± standard deviation) was 9.01 ± 0.16.

`CC(C)=CCN1CCC2(C)c3cc(O)ccc3CC1C2C` (stereo not shown) [Pentazocine, reference compound] gave an ED50 (male mice (Slc: ddy) [3]; Mus musculus, sc, read-out: ED₅₀) of 0.869 mg/kg.

Molecule `CCC(=O)Oc1ccc2c3c1O[C@H]1[C@H](SC(=O)CC)C=C[C@H]4[C@@H](C2)N(CC2CC2)CC[C@@]341` [Compound IX, 3-propionyl-6β-propionylthio-cyclopropylmethylnormorphine] has an ED₅₀ (male mice (Slc: ddy) [3]) of 0.047 mg/kg.

For `CC(=O)S[C@@H]1C=C[C@H]2[C@H]3Cc4ccc(O)c5c4[C@@]2(CCN3CC2CC2)[C@H]1O5` [Compound VI, 6β-acetylthio-N-cyclopropylmethylnormorphine], the “dose with statistically significant analgesic effect” value (male mice (Slc: ddy) [1]; [4]) was 1.0 mg/kg, the “analgesic effect (pain threshold)” value (male mice (Slc: ddy) [1]; [5]) was “analgesic effect depending on dose” and the “pA₂ (naloxone)” value [2, 6] was 7.75 ± 0.12. It also gave a pD₂ ([2]; mean ± standard deviation) of 8.38 ± 0.06.

Reference: EP0374919A1, “Morphine derivative” (Chugai Seiyaku Kabushiki Kaisha, priority 1988, dated 1990)
